Values joined by “and” are separate entries in the source; they are usually repeats but may differ in a detail not shown here. Equal entries are not always repeated.
Assays:
Type in all cases: cell-based
GPR139 [1] = molecular target: T1, GPR139 (Homo sapiens, UniProt Q6DWJ6); experiment: Ca2+ mobilization assay, antagonist mode (EC80 800 nM Lundbeck Cmp 1a after 20 min preincubation), GPR139-CHOk1; settings: individual replicates (Supplementary Figure 4)
T1 sequence (Q6DWJ6 1-353): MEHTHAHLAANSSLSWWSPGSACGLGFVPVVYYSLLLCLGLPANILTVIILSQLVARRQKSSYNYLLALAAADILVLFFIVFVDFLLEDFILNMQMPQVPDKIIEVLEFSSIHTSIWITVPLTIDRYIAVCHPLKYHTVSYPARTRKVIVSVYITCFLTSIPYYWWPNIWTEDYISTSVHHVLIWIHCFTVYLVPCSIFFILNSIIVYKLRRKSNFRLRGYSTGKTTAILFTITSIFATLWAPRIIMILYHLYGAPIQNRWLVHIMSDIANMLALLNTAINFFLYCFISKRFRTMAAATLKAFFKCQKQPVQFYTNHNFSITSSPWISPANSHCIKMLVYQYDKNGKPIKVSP
In short: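 Fluo-4-loaded GPR139-CHOk1 cells in HEPES-buffered HBSS (pH 7.4, 2.5 mM probenecid) given test compounds at 10 µM, then after 20 min challenged with 800 nM Lundbeck Cmp 1a (EC80). Calcium fluorescence read at 37 °C, 485/525 nm.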

GPR139 [2] = molecular target: T1, GPR139; experiment: Ca2+ mobilization assay, agonist mode, stable GPR139-CHOk1 cell line; settings: for EC50 / Emax: Supplementary Table 2, mean ± SEM; for EC50: read-out: pEC50 Ca2+ (converted); for Emax: normalized to Lundbeck Cmp 1a, read-out: Emax (%) Ca2+
In short: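 Agonist activity of compounds is assessed in stably transfected CHO-K1 cells using the calcium dye Fluo-4 at 37 °C in HEPES-buffered HBSS (pH 7.4). Efficacy is expressed relative to the reference agonist Lundbeck Cmp 1a, set as 100%.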

[3] = molecular target: T2, human muscarinic acetylcholine M1 receptor (M1R) (Homo sapiens, UniProt P11229); experiment: Ca2+ mobilization counter-screen in M1R-CHOk1 cells; settings: individual replicates (Supplementary Figure 5)
T2 sequence (P11229 1-460): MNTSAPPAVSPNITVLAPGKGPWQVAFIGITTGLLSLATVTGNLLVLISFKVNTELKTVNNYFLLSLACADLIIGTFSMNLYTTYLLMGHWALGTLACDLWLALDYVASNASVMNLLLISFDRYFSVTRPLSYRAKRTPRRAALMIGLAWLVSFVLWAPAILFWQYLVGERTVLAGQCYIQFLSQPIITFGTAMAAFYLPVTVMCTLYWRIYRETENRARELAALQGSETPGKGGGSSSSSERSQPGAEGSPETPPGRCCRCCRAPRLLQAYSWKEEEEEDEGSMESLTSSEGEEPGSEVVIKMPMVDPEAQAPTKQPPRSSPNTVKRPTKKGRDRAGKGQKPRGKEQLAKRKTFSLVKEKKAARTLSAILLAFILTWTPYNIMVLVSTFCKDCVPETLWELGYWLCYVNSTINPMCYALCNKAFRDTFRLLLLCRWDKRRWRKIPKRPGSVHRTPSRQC
Experimental: Primary screening and pharmacological characterization of compounds were performed using a CHO-K1 cell line that stably expresses human GPR139 (GPR139-CHOk1). The GPR139-CHOk1 cell line was kindly provided by H. Lundbeck A/S, Denmark[24]. GPR139-CHOk1 cells were grown in Ham’s F-12 Kaighn’s Modification Medium (ThermoFisher #21127030) supplemented with 10% dialyzed fetal bovine serum (US origin, ThermoFisher #26400044), 100 units/mL Penicillin-Streptomycin (ThermoFisher #15140122), and 1 mg/mL Geneticin (ThermoFisher #11811031). […] M1R-CHOk1 cells were purchased from The Missouri S&T cDNA Resource Center (#CEM100TN00). M1R-CHOk1 cells were grown in Ham’s F12 Medium (ThermoFisher #21765029) supplemented with 10% fetal bovine serum (Brazilian origin, ThermoFisher #10270106), 100 units/mL Penicillin-Streptomycin, and 0.25 mg/mL Geneticin. HEK293A cells transiently transfected with GPR139 were used for additional pharmacological assessment of signaling pathways activated by GPR139. HEK239A cells were generously provided by Dr. Asuka Inoue, Tohoku University, Japan. HEK293A cells were grown in Dulbecco’s Modified Eagle Medium (ThermoFisher #31966047) supplemented with 10% dialyzed fetal bovine serum and 100 units/mL Penicillin-Streptomycin. Cell lines were maintained at 37 °C in humidified incubator equilibrated with 5% CO2.
30,000 GPR139- or M1R-CHOk1 cells/well were seeded in black clear bottom tissue culture treated 96-well plates (Greiner #655090) and grown for 20–24 h. Cells were washed with HEPES buffer (Hank’s Balanced Salt Solution (HBBS) supplemented with 20 mM HEPES, 1 mM MgCl2, and 1 mM CaCl2; pH 7.4). Cells were loaded with 50 µL of 2 µM Fluo-4 AM dye (ThermoFisher #F14202) in HEPES buffer supplemented with 2.5 mM probenecid and 0.01% Pluronic F-68 (ThermoFisher #24040032) for 1 h at 37 °C. Cells were washed with HEPES buffer. 50 µL HEPES buffer supplemented with 2.5 mM probenecid was added, and the cells were incubated for 10 min at 37 °C before measurement. 50 µL test compounds diluted in HEPES buffer from DMSO stocks (final DMSO concentration of maximally 0.3%) were added automatically after baseline measurements. The intracellular calcium mobilization was measured on a FlexStation 3 Multimode Microplate Reader (Molecular Devices) at 37 °C with filters for excitation of 485 nm and emission of 525 nm.

[4] = Agonist mode, individual replicates (Supplementary Figure 4)
[5] = log [Compound] M = -4.5, individual replicate columns
[6] = log [Compound] M = -5.0, individual replicate columns
[7] = log [Compound] M = -5.5, individual replicate columns
[8] = log [Compound] M = -6.0, individual replicate columns
[9] = log [Compound] M = -6.5, individual replicate columns
[10] = log [Compound] M = -7.0, individual replicate columns
[11] = log [Compound] M = -7.5, individual replicate columns
[12] = log [Compound] M = -8.0, individual replicate columns
[13] = log [Compound] M = -8.5, individual replicate columns
[14] = log [Compound] M = -9.0, individual replicate columns

Row | EC50 (GPR139 [2]) [nM] | Emax (GPR139 [2]) [%] | fold decrease in potency relative to a similar phenyl substituted compound (1.3) (GPR139 [2]; Ca2+ mobilization EC50) | SMILES | Ca2+ signal (% of Cmp 1a) (GPR139 [1]) | Ca2+ signal (% of Cmp 1a) (GPR139 [2]; [4]) | change in potency with larger substituents on the thiophene ring (GPR139 [2]; Ca2+ mobilization) | Ca2+ signal (% of Cmp 1a) (GPR139 [2]; [5]) | Ca2+ signal (% of Cmp 1a) (GPR139 [2]; [6]) | Ca2+ signal (% of Cmp 1a) (GPR139 [2]; [7]) | Ca2+ signal (% of Cmp 1a) (GPR139 [2]; [8]) | Ca2+ signal (% of Cmp 1a) (GPR139 [2]; [9]) | Ca2+ signal (% of Cmp 1a) (GPR139 [2]; [10]) | Ca2+ signal (% of Cmp 1a) (GPR139 [2]; [11]) | Ca2+ signal (% of Cmp 1a) (GPR139 [2]; [12]) | Ca2+ signal (% of Cmp 1a) (GPR139 [2]; [13]) | Ca2+ signal (% of Cmp 1a) (GPR139 [2]; [14]) | Ca2+ signal (% of Carbachol) [3]
1 | 398 | 93 ± 4 | – | CCc1ccc(-c2nc(CC(=O)NC(C)c3ccccc3)no2)s1 (centres unmarked) [Compound 1.12, CCC1=CC=C(C2=NC(CC(NC(C3=CC=CC=C3)C)=O)=NO2)S1] | 15 % of Cmp 1a and 8 % of Cmp 1a and -3.33 % of Cmp 1a | 86 % of Cmp 1a and 84 % of Cmp 1a and 95 % of Cmp 1a | three-fold reduction to a complete loss of activity | 90 % of Cmp 1a and 89 % of Cmp 1a and 81 % of Cmp 1a and 78 % of Cmp 1a | 105 % of Cmp 1a and 80 % of Cmp 1a and 63 % of Cmp 1a and 94 % of Cmp 1a | 111 % of Cmp 1a (2×) and 80 % of Cmp 1a and 55 % of Cmp 1a | 66 % of Cmp 1a and 61 % of Cmp 1a and 43 % of Cmp 1a and 78 % of Cmp 1a | 49 % of Cmp 1a and 48 % of Cmp 1a and 28 % of Cmp 1a and 56 % of Cmp 1a | 21 % of Cmp 1a and 33 % of Cmp 1a and 9 % of Cmp 1a and 38 % of Cmp 1a | 6 % of Cmp 1a and 10 % of Cmp 1a and 3.55 % of Cmp 1a and 24 % of Cmp 1a | -0.628 % of Cmp 1a and 0.281 % of Cmp 1a and 16 % of Cmp 1a and 5 % of Cmp 1a | -1.24 % of Cmp 1a and 1.81 % of Cmp 1a and 5 % of Cmp 1a and 9 % of Cmp 1a | 6.67 % of Cmp 1a and -5 % of Cmp 1a and 1.66 % of Cmp 1a and 6 % of Cmp 1a | 8 % of Carbachol and 5.44 % of Carbachol and 4 % of Carbachol
2 | 398 | 95 ± 10 | 4- to 16 fold | Cc1cccc(-c2nc(CC(=O)NC(C)c3ccccc3)no2)n1 (centres unmarked) [Compound 1.13, CC(C1=CC=CC=C1)NC(CC2=NOC(C3=NC(C)=CC=C3)=N2)=O] | 7 % of Cmp 1a and 16 % of Cmp 1a and -17 % of Cmp 1a | 87 % of Cmp 1a and 109 % of Cmp 1a and 94 % of Cmp 1a | – | 113 % of Cmp 1a and 100 % of Cmp 1a and 105 % of Cmp 1a and 55 % of Cmp 1a | 98 % of Cmp 1a and 101 % of Cmp 1a and 89 % of Cmp 1a and 78 % of Cmp 1a | 85 % of Cmp 1a and 87 % of Cmp 1a and 83 % of Cmp 1a and 50 % of Cmp 1a | 76 % of Cmp 1a and 73 % of Cmp 1a (2×) and 42 % of Cmp 1a | 49 % of Cmp 1a (2×) and 40 % of Cmp 1a and 22 % of Cmp 1a | 28 % of Cmp 1a and 33 % of Cmp 1a and 12 % of Cmp 1a (2×) | 0 % of Cmp 1a and 14 % of Cmp 1a and -10 % of Cmp 1a and 13 % of Cmp 1a | 8 % of Cmp 1a and 0.667 % of Cmp 1a and -4 % of Cmp 1a and -5 % of Cmp 1a | 8 % of Cmp 1a and -4.67 % of Cmp 1a and -2.67 % of Cmp 1a and -3 % of Cmp 1a | 2 % of Cmp 1a (2×) and -0.333 % of Cmp 1a and -15 % of Cmp 1a | -3 % of Carbachol and 3 % of Carbachol and 7 % of Carbachol
